These results are taken from patent US11384090B2, “Spiropyrrolidine derived antiviral agents” (priority 2020, dated 2022).

The target in assay [1] is SARS-CoV-2 3CL-protease (Severe acute respiratory syndrome coronavirus 2 (2019-nCoV) (SARS-CoV-2), UniProt P0DTD1). In words: biochemical. The conditions noted are these: read-out: FRET IC50.
The test system of assay [2] is 229E human corona virus (hCoV). The assay can be described thus: 229E live virus assay. Format: cell-based, hCoV-229E. The conditions noted are these: read-out: 229E EC50.
[3] abbreviates: MRC-5 cells, MOI 0.05, 6 days at 34° C., ATPlite readout, run in duplicate.

Like-named read-outs stand apart in the source and are kept apart here.

For the compound `CC(C)(C)C[C@H](NC(=O)c1cc2c(F)cccc2[nH]1)C(=O)N1C[C@]2(C[C@H]1C#N)C(=O)Nc1ccccc12` [Compound 21], the half-inhibitory concentration (IC50) in assay [1] is less than 0.1 µM.

As for `CN(C(=O)OCc1ccccc1)[C@@H](CC1CCC1)C(=O)N1C[C@]2(C[C@H]1C#N)C(=O)Nc1ccccc12` [Compound 89], in assay [2] (setting [3]), the EC50 lay within 0.1 to 1 µM.

For `C=CCN(C(=O)OCc1ccccc1)[C@@H](CC(C)C)C(=O)N1C[C@]2(C[C@H]1C#N)C(=O)Nc1ccccc12` [Compound 96], in assay [2] (setting [3]), the EC50 lay in the range of 0.1 to 1 µM.

Consider `CCCN(C(=O)OCc1ccccc1)[C@@H](CC(C)C)C(=O)N1C[C@]2(C[C@H]1C#N)C(=O)Nc1ccccc12` [Compound 97], for which, in assay [2] (setting [3]), the EC50 is more than 1 µM.

Consider `CC(C)C[C@@H](C(=O)N1C[C@]2(C[C@H]1C#N)C(=O)Nc1ccccc12)N(C)C(=O)OCc1ccccc1` [Compound 39], for which, in assay [2] (setting [3]), the EC50 is more than 1 µM.

Take `CC(C)C[C@@H](C(=O)N1C[C@]2(C[C@H]1C=O)C(=O)Nc1ccccc12)N(C)C(=O)OCc1ccccc1` [Compound 24]: the IC50 in assay [1] is 0.1 to 1 µM.

Take `CCCN(C(=O)c1cc2c(F)cccc2[nH]1)[C@@H](CC(C)C)C(=O)N1C[C@]2(C[C@H]1C#N)C(=O)Nc1ccccc12` [Compound 98]: the EC50 in assay [2] (setting [3]) was in the range of 0.1 to 1 µM.

Consider `COc1cccc2[nH]c(C(=O)N[C@H](CC(C)(C)C)C(=O)N3C[C@]4(C[C@H]3C#N)C(=O)Nc3ccccc34)cc12` [Compound 16], for which the EC50 in assay [2] (setting [3]) was in the range of 0.1 to 1 µM.

For the compound `COc1cccc2[nH]c(C(=O)N[C@@H](CC(C)C)C(=O)N3C[C@]4(C[C@H]3C=O)C(=O)Nc3ccccc34)cc12` [Compound 23], the EC50 in assay [2] (setting [3]) is less than 0.1 µM.

Take `COc1cccc2[nH]c(C(=O)N[C@H](CC(C)C)C(=O)N3C[C@]4(C[C@H]3C#N)C(=O)Nc3ccccc34)cc12` [Compound 12]: in assay [2] (setting [3]), the EC50 fell in the range of 0.1 to 1 µM.

Take `CN(C(=O)c1cc2c(F)cc(F)cc2[nH]1)[C@@H](CC1CCC1)C(=O)N1C[C@]2(C[C@H]1C#N)C(=O)Nc1ccccc12` [Compound 91]: the EC50 in assay [2] (setting [3]) is less than 0.1 µM.

In the case of `CC(C)C[C@H](NC(=O)OCc1ccccc1)C(=O)N1C[C@]2(C[C@H]1C#N)C(=O)Nc1ccccc12` [Compound 1], the EC50 in assay [2] (setting [3]) was in the range of 0.1 to 1 µM.

As for `CC(C)CC[C@@H](C(=O)N1C[C@]2(C[C@H]1C#N)C(=O)Nc1ccccc12)N(C)C(=O)c1cc2c(F)cc(F)cc2[nH]1` [Compound 104], in assay [2] (setting [3]), the EC50 is less than 0.1 µM.

As to `CN(C(=O)OCc1ccccc1)[C@@H](Cc1ccccc1)C(=O)N1C[C@]2(C[C@H]1C#N)C(=O)Nc1ccccc12` [Compound 41], in assay [1], the IC50 is less than 0.1 µM.

On to `COc1cccc2[nH]c(C(=O)N[C@@H](CC(C)C)C(=O)N3C[C@]4(C[C@H]3C(=O)C(=O)NC3CC3)C(=O)Nc3ccccc34)cc12` [Compound 31], for which the EC50 in assay [2] (setting [3]) fell in the range of 0.1 to 1 µM.

Regarding `COc1cccc2[nH]c(C(=O)N[C@@H](CC(C)C)C(=O)N3C[C@]4(C[C@H]3C#N)C(=O)Nc3ccccc34)cc12` [Compound 11], the EC50 in assay [2] (setting [3]) was less than 0.1 µM.

For the compound `CN(C(=O)c1cc2c(F)cc(F)cc2[nH]1)[C@@H](Cc1ccccc1)C(=O)N1C[C@]2(C[C@H]1C#N)C(=O)Nc1ccccc12` [Compound 81], the EC50 in assay [2] (Human coronavirus 229E, MRC5, 144 h) was less than 0.1 µM.

As to `COc1cccc2[nH]c(C(=O)N[C@@H](CC3CCC3)C(=O)N3C[C@]4(C[C@H]3C#N)C(=O)Nc3ccccc34)cc12` [Compound 17], in assay [2] (setting [3]), the EC50 is less than 0.1 µM.

Broadly, the IC50 is the midpoint of a concentration-inhibition curve. As usually defined, the EC50 is the concentration that produces a half-maximal response.
